In patent US20020111274A1, “1-alkyl-3-[1-(substituted phenyl) benzotriazol-6-yl] uracils” (BASF Aktiengesellschaft, priority 2000, published 2002):

Assays:
Design in all cases: scale not given here
[1] = system: IPOHE Morningglory, Ivyleaf; experiment: Postemergence herbicidal evaluation, IPOHE; type: in vivo, Ipomoea hederacea, (L.) Jacq.; settings: postemergence spray, rated about two-three weeks after treatment
Method: (§1) In this evaluation, seedling plants are grown in jiffy flats for about two weeks. The test compounds are dispersed in 80/20 acetone/water mixtures containing 1.0% SUN-IT® II, a methylated seed oil, in sufficient quantities to provide the equivalent of about 0.006 kg to 0.400 kg per hectare of active compound when applied to the plants through a spray nozzle operating at 40 psi for a predetermined time. After spraying, the plants are placed on greenhouse benches and are cared for in accordance with conventional greenhouse procedures. Approximately two - three weeks after treatment, the seedling plants are examined and rated according to the rating system set forth below. Where more than one test is involved for a given compound, the data are averaged.

ORYSAT Rice, Tebonnet = experiment: Postemergence herbicidal evaluation, ORYSAT; type: in vivo, Oryza sativa, (L.); settings: postemergence spray, rated about two-three weeks after treatment
Method: as §1

GLXMAW Soybean, Williams = experiment: Preemergence herbicidal evaluation, GLXMAW; type: in vivo, Glycine max, (L.) Merr. cv Williams; settings: preemergence
Text: (§2) The preemergence herbicidal activity of the test compounds of the present invention is exemplified by the following tests in which the seeds of a variety of monocotyledonous and dicotyledonous plants are separately mixed with potting soil and planted on top of approximately one inch of soil in separate pint cups. […] The treated cups are then placed on greenhouse benches, watered and cared for in accordance with conventional greenhouse procedures. From four to five weeks after treatment, the tests are terminated and each cup is examined and rated according to the rating system provided in Example 46.

ECHOG Barnyardgrass = experiment: Preemergence herbicidal evaluation, ECHOG; type: in vivo, Echinochloa crus-galli, (L.) Beau; settings: preemergence
Text: as §2

AMBEL Ragweed, Common [2] = experiment: Postemergence herbicidal evaluation, AMBEL; type: in vivo, Ambrosia artemisifolia, L.; settings: postemergence spray, rated about two-three weeks after treatment
Method: as §1

[3] = system: CHEAL Lambsquarters, Common; experiment: Preemergence herbicidal evaluation, CHEAL; type: in vivo, Chenopodium album, L.; settings: preemergence
Text: as §2

GALAP Galium = experiment: Postemergence herbicidal evaluation, GALAP; type: in vivo, Galium aparine; settings: postemergence spray, rated about two-three weeks after treatment
Method: as §1

[4] = system: TRZAWR Wheat, Winter, cv Riband; experiment: Preemergence herbicidal evaluation, TRZAWR; type: in vivo, Triticum aestivum; settings: preemergence
Text: as §2

[5] = system: IPOHE Morningglory, Ivyleaf; experiment: Preemergence herbicidal evaluation, IPOHE; type: in vivo, Ipomoea hederacea, (L.) Jacq.; settings: preemergence
Text: as §2

[6] = system: TRZAWR Wheat, Winter, cv Riband; experiment: Postemergence herbicidal evaluation, TRZAWR; type: in vivo, Triticum aestivum; settings: postemergence spray, rated about two-three weeks after treatment
Method: as §1

AMBEL Ragweed, Common [7] = experiment: Preemergence herbicidal evaluation, AMBEL; type: in vivo, Ambrosia artemisifolia, L.; settings: preemergence
Text: as §2

CASOB Sicklepod = experiment: Preemergence herbicidal evaluation, CASOB; type: in vivo, Cassia obtusifolia, L.; settings: preemergence
Text: as §2

Cc1ccc(-n2nnc3cc(F)c(-n4c(=O)cc(C(F)(F)F)n(C)c4=O)cc32)cc1 [Example 19]
7.0: ECHCG herbicidal rating (ECHOG Barnyardgrass; rate 0.062 kg/ha)
0.5: GLXMAW herbicidal rating (GLXMAW Soybean, Williams; rate 0.016 kg/ha) | ECHCG herbicidal rating (ECHOG Barnyardgrass; rate 0.016 kg/ha)
5.5: IPOHE herbicidal rating ([5]; rate 0.062 kg/ha) | AMBEL herbicidal rating (AMBEL Ragweed, Common [7]; rate 0.032 kg/ha)
5.0: Postemergence herbicidal rating AMBEL (AMBEL Ragweed, Common [2]; 0.062 kg/ha)
3.5: Postemergence herbicidal rating TRZAWR ([6]; 0.016 kg/ha)
9.0: Postemergence herbicidal rating IPOHE ([1]; 0.032 kg/ha) | Postemergence herbicidal rating IPOHE ([1]; 0.062 kg/ha) | ECHCG herbicidal rating (ECHOG Barnyardgrass; rate 0.125 kg/ha) | CHEAL herbicidal rating ([3]; rate 0.016 kg/ha) | CHEAL herbicidal rating ([3]; rate 0.032 kg/ha) | CHEAL herbicidal rating ([3]; rate 0.062 kg/ha) | CHEAL herbicidal rating ([3]; rate 0.125 kg/ha) | AMBEL herbicidal rating (AMBEL Ragweed, Common [7]; rate 0.125 kg/ha)
4.0: Postemergence herbicidal rating IPOHE ([1]; 0.008 kg/ha) | Postemergence herbicidal rating IPOHE ([1]; 0.016 kg/ha) | Postemergence herbicidal rating ORYSAT (ORYSAT Rice, Tebonnet; 0.062 kg/ha) | GLXMAW herbicidal rating (GLXMAW Soybean, Williams; rate 0.125 kg/ha) | ECHCG herbicidal rating (ECHOG Barnyardgrass; rate 0.032 kg/ha) | Postemergence herbicidal rating AMBEL (AMBEL Ragweed, Common [2]; 0.032 kg/ha) | Postemergence herbicidal rating GALAP (GALAP Galium; 0.032 kg/ha) | Postemergence herbicidal rating GALAP (GALAP Galium; 0.062 kg/ha) | Postemergence herbicidal rating TRZAWR ([6]; 0.032 kg/ha)
8.0: IPOHE herbicidal rating ([5]; rate 0.125 kg/ha) | AMBEL herbicidal rating (AMBEL Ragweed, Common [7]; rate 0.062 kg/ha)
1.5: GLXMAW herbicidal rating (GLXMAW Soybean, Williams; rate 0.032 kg/ha) | IPOHE herbicidal rating ([5]; rate 0.032 kg/ha) | CASOB herbicidal rating (CASOB Sicklepod; rate 0.032 kg/ha) | CASOB herbicidal rating (CASOB Sicklepod; rate 0.062 kg/ha)
4.5: Postemergence herbicidal rating TRZAWR ([6]; 0.062 kg/ha) | AMBEL herbicidal rating (AMBEL Ragweed, Common [7]; rate 0.016 kg/ha)
0.0: Postemergence herbicidal rating AMBEL (AMBEL Ragweed, Common [2]; 0.008 kg/ha) | Postemergence herbicidal rating GALAP (GALAP Galium; 0.008 kg/ha) | TRZAWR herbicidal rating ([4]; rate 0.016 kg/ha)
2.0: Postemergence herbicidal rating ORYSAT (ORYSAT Rice, Tebonnet; 0.008 kg/ha) | TRZAWR herbicidal rating ([4]; rate 0.062 kg/ha)
3.0: Postemergence herbicidal rating ORYSAT (ORYSAT Rice, Tebonnet; 0.032 kg/ha) | Postemergence herbicidal rating GALAP (GALAP Galium; 0.016 kg/ha) | TRZAWR herbicidal rating ([4]; rate 0.125 kg/ha)
2.5: Postemergence herbicidal rating ORYSAT (ORYSAT Rice, Tebonnet; 0.016 kg/ha) | GLXMAW herbicidal rating (GLXMAW Soybean, Williams; rate 0.062 kg/ha) | Postemergence herbicidal rating TRZAWR ([6]; 0.008 kg/ha)
1.0: Postemergence herbicidal rating AMBEL (AMBEL Ragweed, Common [2]; 0.016 kg/ha) | TRZAWR herbicidal rating ([4]; rate 0.032 kg/ha) | IPOHE herbicidal rating ([5]; rate 0.016 kg/ha) | CASOB herbicidal rating (CASOB Sicklepod; rate 0.016 kg/ha) | CASOB herbicidal rating (CASOB Sicklepod; rate 0.125 kg/ha)
